Among the data in ChEMBL document CHEMBL5137001, “Examination of multiple Trypanosoma cruzi targets in a new drug discovery approach for Chagas disease” (Bioorg Med Chem, 2022) are Ki, IC50 and Kd values, retold here.

For assay [1], the target named is T1, Bifunctional dihydrofolate reductase-thymidylate synthase (Trypanosoma cruzi, UniProt Q27793). Put plainly: Inhibition of recombinant Trypanosoma cruzi DHFR-TS assessed as inhibition constant.
In assay [2] the target is T2, Triosephosphate isomerase, glycosomal (Trypanosoma cruzi, UniProt P52270). Kind of assay: Inhibition of recombinant Trypanosoma cruzi TIM using glyceraldehyde 3-phosphate as substrate.
Assay [3] addresses T3, Trypanothione reductase (Trypanosoma cruzi, UniProt P28593). Kind of assay: Inhibition of Trypanosoma cruzi TR assessed as inhibition constant in presence of NADPH.
The target in assay [4] is T3, Trypanothione reductase. Put plainly: Inhibition of Trypanosoma cruzi TR assessed as inhibition constant.
Assay [5] deals with T4, Cruzipain (Trypanosoma cruzi, UniProt P25779). Put plainly: Inhibition of Cruzaine derived from epimastigotes of Trypanosoma cruzi Tul2 strain using Z-FR-AMC as substrate assessed as release of 7-amino-4-methylcoumarin by fluorimetry.
Assay [6] addresses T4, Cruzipain. Kind of assay: Inhibition of Trypanosoma cruzi Cruzaine.
For assay [7], the target named is T2, Triosephosphate isomerase, glycosomal. Kind of assay: Inhibition of Trypanosoma cruzi TIM expressed in Escherichia coli using glyceraldehyde 3-phosphate as substrate in presence of NADH/alphaGDPH measured after 2 hrs by spectrophotometry.
Assay [8] concerns the target T1, Bifunctional dihydrofolate reductase-thymidylate synthase. Put plainly: Inhibition of Trypanosoma cruzi DHFR-TS in presence of NADPH by spectrophotometry.
Assay [9] is described as follows: Inhibition of Trypanosoma cruzi PTR1 using folic acid as substrate in presence of NADPH by spectrophotometry.
Assay [10] can be described thus: Inhibition of Trypanosoma cruzi DHODH assessed as inhibition constant measured for 5 mins by spectrophotometry.
In assay [11] the target is T2, Triosephosphate isomerase, glycosomal. Kind of assay: Inhibition of Trypanosoma cruzi TIM expressed in Escherichia coli using glyceraldehyde 3-phosphate as substrate preincubated for 2 hrs in presence of NADH/alphaGDPH by spectrophotometry.
Assay [12] has the same target. Put plainly: Inhibition of Trypanosoma cruzi TIM.
The target of assay [13] is T4, Cruzipain. Put plainly: Inhibition of Trypanosoma cruzi Cruzaine using Z-Phe-Arg-AMC as substrate preincubated for 15 mins measured for 10 mins by […].
Assay [14] concerns the target T1, Bifunctional dihydrofolate reductase-thymidylate synthase. Kind of assay: Inhibition of Trypanosoma cruzi DHFR-TS assessed as inhibition constant using DHF as substrate in presence of NADPH by spectrophotometry.
Assay [15] addresses Sterol 14-alpha demethylase (Trypanosoma cruzi (strain CL Brener), UniProt Q7Z1V1). Put plainly: Displacement of [3H]-Eubricol from C-terminal His-tagged full-length Trypanosoma cruzi Tulahuen strain CYP51 expressed in Escherichia coli HMS174(DE3) assessed as dissociation constant preincubated for 5 mins measured after 60 mins by enzymatic assay.

The structures appear in SMILES notation.

T1 sequence (Q27793 whole entry): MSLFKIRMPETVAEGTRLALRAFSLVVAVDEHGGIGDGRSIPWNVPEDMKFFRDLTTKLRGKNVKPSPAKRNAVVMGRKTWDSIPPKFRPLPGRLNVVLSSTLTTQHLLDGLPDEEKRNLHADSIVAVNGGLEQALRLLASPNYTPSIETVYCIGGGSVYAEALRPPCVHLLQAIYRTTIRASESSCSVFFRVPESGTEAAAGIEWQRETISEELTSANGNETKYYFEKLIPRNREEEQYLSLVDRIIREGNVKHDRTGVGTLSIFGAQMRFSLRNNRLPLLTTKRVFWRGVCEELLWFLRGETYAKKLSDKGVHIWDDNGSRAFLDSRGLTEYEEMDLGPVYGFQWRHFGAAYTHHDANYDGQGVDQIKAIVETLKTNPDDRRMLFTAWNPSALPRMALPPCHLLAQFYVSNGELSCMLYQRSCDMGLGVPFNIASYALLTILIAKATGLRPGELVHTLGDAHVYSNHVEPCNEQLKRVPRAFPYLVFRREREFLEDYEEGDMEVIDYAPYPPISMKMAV
T4 sequence (P25779 whole entry): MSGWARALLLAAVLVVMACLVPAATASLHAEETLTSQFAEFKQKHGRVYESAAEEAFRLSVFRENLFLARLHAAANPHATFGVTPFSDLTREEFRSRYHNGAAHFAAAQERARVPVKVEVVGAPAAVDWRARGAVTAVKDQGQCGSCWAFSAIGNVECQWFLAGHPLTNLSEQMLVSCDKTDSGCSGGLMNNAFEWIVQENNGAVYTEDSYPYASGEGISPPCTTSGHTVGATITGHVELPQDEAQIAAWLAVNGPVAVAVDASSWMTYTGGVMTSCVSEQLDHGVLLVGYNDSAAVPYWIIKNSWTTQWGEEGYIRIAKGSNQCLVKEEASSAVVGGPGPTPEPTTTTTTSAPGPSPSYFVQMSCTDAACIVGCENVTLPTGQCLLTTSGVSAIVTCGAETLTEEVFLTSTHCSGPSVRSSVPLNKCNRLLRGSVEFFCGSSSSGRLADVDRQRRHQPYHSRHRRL
T2 sequence (P52270 whole entry): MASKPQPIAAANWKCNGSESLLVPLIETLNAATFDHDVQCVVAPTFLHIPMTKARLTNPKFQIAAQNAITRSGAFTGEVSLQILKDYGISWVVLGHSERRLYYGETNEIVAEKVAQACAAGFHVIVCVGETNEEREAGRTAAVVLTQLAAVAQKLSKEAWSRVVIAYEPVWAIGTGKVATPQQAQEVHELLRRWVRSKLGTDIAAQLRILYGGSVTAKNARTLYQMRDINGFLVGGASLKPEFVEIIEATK
T3 sequence (P28593 whole entry): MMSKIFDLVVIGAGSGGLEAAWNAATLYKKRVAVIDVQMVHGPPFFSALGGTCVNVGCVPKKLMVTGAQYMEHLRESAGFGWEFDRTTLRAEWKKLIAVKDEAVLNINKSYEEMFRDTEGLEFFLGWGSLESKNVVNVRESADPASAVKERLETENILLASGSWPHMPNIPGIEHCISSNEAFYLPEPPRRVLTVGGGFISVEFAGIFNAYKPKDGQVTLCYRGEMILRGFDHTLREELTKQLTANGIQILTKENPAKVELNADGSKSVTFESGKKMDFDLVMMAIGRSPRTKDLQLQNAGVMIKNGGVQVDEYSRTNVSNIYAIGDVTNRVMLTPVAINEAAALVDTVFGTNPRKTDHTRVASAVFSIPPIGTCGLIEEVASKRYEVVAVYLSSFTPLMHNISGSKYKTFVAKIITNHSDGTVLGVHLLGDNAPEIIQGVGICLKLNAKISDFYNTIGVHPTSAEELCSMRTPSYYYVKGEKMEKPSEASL
Sterol 14-alpha demethylase, sequence (Q7Z1V1 whole entry): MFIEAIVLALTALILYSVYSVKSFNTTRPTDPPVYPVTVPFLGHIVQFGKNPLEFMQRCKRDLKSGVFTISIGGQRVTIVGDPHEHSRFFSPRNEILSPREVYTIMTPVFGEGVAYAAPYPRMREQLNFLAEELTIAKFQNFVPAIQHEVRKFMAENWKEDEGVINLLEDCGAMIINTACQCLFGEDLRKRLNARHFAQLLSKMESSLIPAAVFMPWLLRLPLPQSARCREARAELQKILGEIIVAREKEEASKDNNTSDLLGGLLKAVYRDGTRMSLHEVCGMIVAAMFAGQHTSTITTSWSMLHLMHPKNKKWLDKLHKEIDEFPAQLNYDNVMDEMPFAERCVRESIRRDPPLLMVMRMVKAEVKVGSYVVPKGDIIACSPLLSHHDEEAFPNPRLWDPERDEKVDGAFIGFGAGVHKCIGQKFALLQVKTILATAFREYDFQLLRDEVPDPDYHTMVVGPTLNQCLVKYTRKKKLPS

Broadly, the Ki is a dissociation constant, usually derived from enzyme kinetics or from competition with a known ligand. With `Nc1ncc(Cc2ccc(Oc3ccccc3)cc2)c(N)n1`, the Ki in [1] was 0.03 µM.

The IC50 is the midpoint of a concentration-inhibition curve. As to `Cc1ccc2nc(-c3ccc4nc(-c5ccc(N)cc5)sc4c3)sc2c1S(=O)(=O)O`, in assay [2], the half-maximal inhibitory concentration (IC50) is 8 µM.

Turning to `O=C1C(Br)=C(Oc2ccc3ccccc3c2)C(=O)c2ccccc21`, the Ki at Trypanothione reductase [3] is 1.1 µM.

As for `CN1CCN(CCn2ccc3cc(-c4ncc(C5(N6CCCC6)CCCCC5)s4)ccc32)CC1`, the Ki at Trypanothione reductase [4] was 3.8 µM.

Turning to `O=S(=O)(O)CCCSc1nc2ccccc2s1`, in assay [2], the IC50 was 33 µM.

For the compound `CC(C)CC(NC(=O)c1ccc(-c2ccccc2)o1)C(=O)NC1(C#N)CC1` (configuration not stated), the IC50 at Cruzipain [5] is 30.3 µM.

As to `COc1ccc(NC(=O)COC(=O)C(CC(C)C)N2C(=O)C(Cl)=C(Cl)C2=O)cc1` (configuration not stated), at Cruzipain [6], the IC50 came out at 0.6 µM.

Regarding `CC(C)CC(=O)c1ccc2c(c1)[n+]([O-])c(C(=O)C(C)C)c(C(F)(F)F)[n+]2[O-]`, on Trypanothione reductase [4], the Ki was determined as 19 µM.

In the case of `CC(C)Oc1cccc(Cc2cnc(N)nc2N)c1`, the Ki in assay [1] amounted to 0.023 µM.

`COc1ccc(-c2c/c(=[S+]/CC(C)=O)ss2)cc1`: the IC50 in assay [7] amounted to 11 µM.

`CN(Cc1cnc2nc(N)nc(N)c2n1)c1ccc(C(=O)N[C@@H](CCC(=O)O)C(=O)O)cc1` [METHOTREXATE]: the IC50 was 0.11 µM in assay [8] and 0.038 nM in assay [9].

Turning to `O=C1NC(=O)C(CCc2ccc3cc(C(=O)O)ccc3c2)C(C(=O)O)N1` (configuration not stated), in [10], the Ki came out at 0.02 µM.

Regarding `[O-][NH+]1c2ccc(O)cc2[NH+]([O-])c2cc(Cl)c(Cl)cc21` (configuration not stated), the IC50 in [11] came out at 26 µM.

In [12], `O=C(/C=C/C=C/c1ccco1)/C=C/C=C/c1ccco1` yielded an IC50 of 3 µM.

As for `CCOC(=O)/C=C/C(=O)[C@H](CC(C)C)NC(=O)[C@@H](CC(=O)c1ccccc1)Cc1ccccc1`, inhibition on Cruzipain [6] was half-maximal at 20 µM (IC50).

At Cruzipain [13], `O=C1/C(=C/C=C/c2ccco2)CCC/C1=C\C=C\c1ccco1` yielded an IC50 of 37 µM.

With `Cc1ccc(C)c(OC2=CC(=O)c3ccncc3C2=O)c1`, the inhibition constant Ki at Trypanothione reductase [3] amounted to 6 µM.

With `COc1cc(NCc2ccc3nc(N)ncc3c2C)cc(OC)c1OC`, the Ki in [14] came to 0.0066 µM.

For `O=C(CSc1nc2ccccc2[nH]1)Nc1ncc([N+](=O)[O-])s1`, the IC50 in assay [12] came to 3 µM.

Take `c1ccc(-c2sc(C3(N4CCCC4)CCCCC3)cc2-c2ccc3cc[nH]c3c2)cc1`: at Trypanothione reductase [4], the Ki worked out at 10 µM.

A word on the Kd: it is the concentration at which binding is half-saturated. On to `OC(Cn1cnnn1)(c1ccc(F)cc1F)C(F)(F)c1ccc(-c2ccc(OCC(F)(F)F)cn2)cn1` (configuration not stated), for which, in [15], the Kd came to 0.024 µM.
